From EPA's ToxRefDB 2

How the values were obtained:
rat [1] = conditions: Multigenerational reproductive toxicity study, sprague dawley, Oral, Feed, dose end: 2 generation
rat [2] = conditions: Subchronic oral toxicity in rodents, fischer, Gavage/Intubation, dose end: 13 week, group: systemic
rat [3] = conditions: Combined chronic toxicity/carcinogenicity; fischer; Oral; Gavage/Intubation; dose end: 103 week; group: systemic; systemic / in life observation / clinical signs / lethargy + systemic / pathology microscopic / stomach / inflammation + systemic / …
mouse [4] = conditions: Carcinogenicity, b6c3f1, Oral, Gavage/Intubation, dose end: 103 week, group: systemic
rat [5] = conditions: Sub-acute repeat dose toxicity; fischer; Oral; Gavage/Intubation; dose end: 16 day; group: systemic; systemic / in life observation / body weight / body weight gain
mouse [6] = conditions: Subchronic oral toxicity in rodents, b6c3f1, Gavage/Intubation, dose end: 13 week, group: systemic
mouse [7] = conditions: Sub-acute repeat dose toxicity, b6c3f1, Oral, Gavage/Intubation, dose end: 16 day, group: systemic
rat [8] = conditions: Subchronic oral toxicity in rodents, other, Feed, dose end: 13 week
rat [9] = conditions: Developmental neurotoxicity study; fischer; Injection; Subcutaneous; dose end: 21 PND; group: cannot be grouped; systemic / in life observation / body weight / offspring (pup) weight + systemic / in life observation / clinical signs / tremors
rat [10] = conditions: Carcinogenicity; other; Oral; Feed; dose end: 80 week; group: systemic; systemic / in life observation / body weight / body weight + systemic / in life observation / clinical signs / anemia + systemic / in life …
mouse [11] = conditions: Carcinogenicity, b6c3f1, Oral, Feed, dose end: 80 week, group: systemic
rat [12] = conditions: Developmental neurotoxicity study; fischer; Oral; Feed; dose end: 114 PND; group: cannot be grouped; systemic / in life observation / body weight / offspring (pup) weight
[13] = group: offspring, systemic / in life observation / body weight / offspring (pup) weight
[14] = group: parental, systemic / in life observation / body weight / body weight + systemic / in life observation / body weight / body weight gain + systemic / …
[15] = group: parental, systemic / organ weight / kidney / relative to body weight
[16] = systemic / organ weight / liver / absolute + systemic / organ weight / liver / relative to body weight
[17] = systemic / in life observation / clinical signs / lethargy + systemic / in life observation / body weight / body weight
[18] = systemic / in life observation / clinical signs / lethargy + systemic / in life observation / body weight / body weight + systemic / …
[19] = systemic / in life observation / clinical signs / fur (altered appearance) + systemic / in life observation / clinical signs / lethargy
[20] = systemic / in life observation / clinical signs / fur (altered appearance) + systemic / in life observation / clinical signs / lethargy + …
[21] = systemic / in life observation / clinical signs / lethargy + systemic / in life observation / mortality / mortality
[22] = group: maternal, reproductive / reproductive performance / mating / mating
[23] = group: systemic, systemic / organ weight / kidney / absolute + systemic / organ weight / kidney / relative to body weight + systemic / organ weight / liver…
[24] = systemic / pathology microscopic / liver / hyperplasia
[25] = systemic / pathology microscopic / liver / hyperplasia + systemic / pathology microscopic / liver / hepatocellular carcinoma + systemic / in…

Work on `S=c1[nH]c2ccccc2s1` [2-Mercaptobenzothiazole] yielded an LEL (rat [1]; [13]) of 194 mg/kg/day, an LOAEL (rat [1]; [13]) of 194 mg/kg/day and an NEL (rat [1]; [13]) of less than 194 mg/kg/day. It also gave an NOAEL (rat [1]; [13]) of less than 194 mg/kg/day, an LOAEL (rat [1]; [14]) of 695 mg/kg/day and an NOAEL (rat [1]; [14]) of 194 mg/kg/day. It also gave an LEL (rat [1]; [15]) of 218 mg/kg/day, an NEL (rat [1]; [15]) of less than 218 mg/kg/day and an LOAEL (rat [2]; systemic / in life observation / body weight / body weight gain + systemic / in life observation / clinical signs / irritability) of 750 mg/kg/day. The LEL (rat [2]; [16]) was 188 mg/kg/day, the NEL (rat [2]; [16]) was less than 188 mg/kg/day and the NOAEL (rat [2]; systemic / organ weight / liver / absolute + systemic / organ weight / liver / relative to body weight + systemic / in life observation / …) was 375 mg/kg/day. The LEL (rat [3]) was 188 mg/kg/day, the LOAEL (rat [3]) was 188 mg/kg/day and the NEL (rat [3]) was less than 188 mg/kg/day. It also gave an NOAEL (rat [3]) of less than 188 mg/kg/day, an LOAEL (mouse [4]; [17]) of 375 mg/kg/day and an NOAEL (mouse [4]; [17]) of less than 375 mg/kg/day. For the same compound, the LEL (mouse [4]; [18]) was 375 mg/kg/day, the NEL (mouse [4]; [18]) was less than 375 mg/kg/day and the LEL (rat [5]) was 2500 mg/kg/day. The LOAEL (rat [5]) was greater than 2500 mg/kg/day, the NEL (rat [5]) was 1250 mg/kg/day and the NOAEL (rat [5]) was no less than 2500 mg/kg/day. For the same compound, the LEL (mouse [6]; [19]) was 375 mg/kg/day, the LOAEL (mouse [6]; [19]) was 375 mg/kg/day and the NEL (mouse [6]; [20]) was 188 mg/kg/day. It also gave an NOAEL (mouse [6]; [20]) of 188 mg/kg/day, an LOAEL (mouse [7]; systemic / in life observation / clinical signs / lethargy) of 1500 mg/kg/day and an LEL (mouse [7]; [21]) of 1500 mg/kg/day. For the same compound, the NEL (mouse [7]; [21]) was 750 mg/kg/day and the NOAEL (mouse [7]; [21]) was 750 mg/kg/day.
In the case of `O=C1C2(Cl)C3(Cl)C4(Cl)C(Cl)(Cl)C5(Cl)C3(Cl)C1(Cl)C5(Cl)C24Cl` (stereo unspecified) [Kepone], the LEL (rat [8]; [22]) is reported as 1.25 mg/kg/day, the LOAEL (rat [8]; [22]) is reported as greater than 1.25 mg/kg/day and the NEL (rat [8]; [22]) is reported as less than 1.25 mg/kg/day. For the same compound, the NOAEL (rat [8]; [22]) was no less than 1.25 mg/kg/day, the LEL (rat [8]; [23]) was 1.25 mg/kg/day and the LOAEL (rat [8]; [23]) was greater than 1.25 mg/kg/day. It also gave an NEL (rat [8]; [23]) of less than 1.25 mg/kg/day, an NOAEL (rat [8]; [23]) of no less than 1.25 mg/kg/day and an LEL (rat [9]) of 1 mg/kg/day. For the same compound, the LOAEL (rat [9]) was greater than 1 mg/kg/day, the NEL (rat [9]) was less than 1 mg/kg/day and the NOAEL (rat [9]) was no less than 1 mg/kg/day. For the same compound, the LEL (rat [10]) was 0.4 mg/kg/day, the LOAEL (rat [10]) was 0.4 mg/kg/day and the NEL (rat [10]) was less than 0.4 mg/kg/day. The NOAEL (rat [10]) was less than 0.4 mg/kg/day, the LOAEL (mouse [11]; [24]) was 3 mg/kg/day and the NOAEL (mouse [11]; [24]) was less than 3 mg/kg/day. For the same compound, the LEL (mouse [11]; [25]) was 3 mg/kg/day, the NEL (mouse [11]; [25]) was less than 3 mg/kg/day and the LEL (rat [12]) was 0.05 mg/kg/day. It also gave an LOAEL (rat [12]) greater than 0.3 mg/kg/day, an NEL (rat [12]) of less than 0.05 mg/kg/day and an NOAEL (rat [12]) of no less than 0.3 mg/kg/day.
